Data reported in patent publication US20090036489A1, “Novel Cyclic Aminophenylalkanoic Acid Derivative” (priority 2005, published 2009).

Target: T1, human PPARα (Homo sapiens, UniProt Q07869)
T1 construct: expressed in transfected cells; host or cells: CHO-K1
T1 sequence (Q07869 239-466 limits assumed): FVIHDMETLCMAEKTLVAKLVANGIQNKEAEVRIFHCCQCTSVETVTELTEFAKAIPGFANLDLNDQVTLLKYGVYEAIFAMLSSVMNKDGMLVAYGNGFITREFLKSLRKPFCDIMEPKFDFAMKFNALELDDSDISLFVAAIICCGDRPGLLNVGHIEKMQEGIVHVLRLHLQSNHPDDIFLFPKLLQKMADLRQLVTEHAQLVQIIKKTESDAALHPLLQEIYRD
Assay: Activation of human PPARα: GAL4-PPARα LBD luciferase reporter transactivation in CHO-K1 cells
Type: cell-based
Settings: CHO-K1 cells co-transfected with GAL4 DNA-binding domain/human PPARα ligand-binding domain fusion, firefly luciferase reporter normalized to Renilla; 20 hours with test compound
From the text: Activation of Human Peroxisome Proliferator-Activated Receptor α (PPARα)
CHO-K1 cells cultured in Ham's F12 medium supplemented with 10% fetal calf serum (FCS) were co-transfected with a receptor-expression plasmid engineered to express a fusion protein in which the DNA-binding domain of yeast transcription factor GAL4 is fused to the ligand-binding domain of human PPARα (Biochemistry, 1993, 32, 5598), a reporter plasmid (firefly luciferase reporter plasmid, STRATAGENE) and a Renilla luciferase reporter plasmid as an internal control. The plasmids were co-transfected for 2 hours in serum-free medium using Lipofectamine (Invitrogen). Subsequently, the cells were cultured at 37° C. for 20 hours in Ham's F12 medium supplemented with 10% defatted bovine serum and a test compound. The activity of the two luciferases was then measured and firefly luciferase activity was normalized to the internal control Renilla luciferase activity.

Row | EC50 [nM] | Structure (SMILES)
1 | 67 | Cc1nc(-c2ccc(Cl)cc2)sc1C(=O)NC1CCCN(c2cccc(OC(C)(C)C(=O)O)c2)C1 (stereo not shown) [Example 14, 2-[3-[3-[[2-(4-chlorophenyl)-4-methylthiazol-5-yl]carbonylamino]piperidin-1-yl]phenoxy]-2-methylpropionic acid]
2 | 37 | Cc1nc(-c2ccc(Cl)cc2)sc1C(=O)NC1CCCN(c2cccc(CC(=O)O)c2)C1 (stereo not shown) [Example 11, 3-[3-[[2-(4-chlorophenyl)-4-methylthiazol-5-yl]carbonylamino]piperidin-1-yl]phenylacetic acid]
3 | 0.1 | Cc1nc(-c2ccc(Cl)cc2)sc1C(=O)NCC1CCCN(c2ccccc2CC(=O)O)C1 (stereo not shown) [Example 8, 2-[3-[[2-(4-chlorophenyl)-4-methylthiazol-5-yl]carbonylaminomethyl]piperidin-1-yl]phenylacetic Acid]
4 | 45 | Cc1nc(-c2ccc(Cl)cc2)sc1C(=O)NCC1CCCN(c2cccc(CC(=O)O)c2)C1 (stereo not shown) [Example 9, 3-[3-[[2-(4-chlorophenyl)-4-methylthiazol-5-yl]carbonylaminomethyl]piperidin-1-yl]phenylacetic acid]
